This is an account of results in ChEMBL document CHEMBL6096697, “Structure-Guided Discovery of Novel N4-(Substituted Thiazol-2-yl)-N2-(4-Substituted phenyl)pyrimidine-2,4-Diamines as Potent CDK2 and CDK9 Dual Inhibitors with High Oral Bioavailability” (J Med Chem, 2025).

As usually defined, the inhibition is the share of the control response that was lost under treatment. What is called IC50 is the midpoint of a concentration-inhibition curve.

Assay [1] concerns the target CDK9/cyclin T1 (Homo sapiens) (UniProt O60563+P50750). Kind of assay: Inhibition of CDK9/cyclin T (unknown origin) using […] at 1 uM incubated for 40 mins in presence of ATP by Kinase-Glo assay relative to control. The class given is protein-complex assay. On the technique in general: Kinase-Glo measures the ATP left after a reaction by luminescence.
The target in assay [2] is Cyclin-dependent kinase 2/cyclin A (Homo sapiens, UniProt P24941). Kind of assay: Inhibition of CDK2/cyclin A (unknown origin) using […] incubated for 40 mins in presence of ATP by Kinase-Glo assay. Format: protein-complex assay.
The subject of a further assay is HCT-116. Nature of the assay: Cytotoxicity against human HCT-116 cells assessed as cell growth inhibition incubated for 48 hrs by MTT assay. The class given is functional, cell-based. Particulars: HCT-116, 48 h.
The nature of assay [3]: Inhibition of CDK9/cyclin T (unknown origin) using […] incubated for 40 mins in presence of ATP by Kinase-Glo assay. The arrangement: species or system Homo sapiens.
For assay [4], the target named is Cyclin-dependent kinase 2/cyclin A (Homo sapiens) (UniProt P24941+P20248+P78396). Nature of the assay: Inhibition of CDK2/cyclin A (unknown origin) using […] at 1 uM incubated for 40 mins in presence of ATP by Kinase-Glo assay relative to control. The class given is protein-complex assay.

Regarding `Cc1cnc(Nc2nc(Nc3ccc(S(N)(=O)=O)cc3)ncc2F)s1`, the inhibition in assay [1] turned out to be 66%. Also, the IC50 turned out to be 12 nM in assay [2] and 910 nM in the assay with HCT-116.
On to `Cc1cnc(Nc2ccnc(Nc3ccc(S(N)(=O)=O)cc3)n2)s1`, for which the inhibition in assay [1] came to 29%. In addition, the half-inhibitory concentration (IC50) in assay [2] stood at 5 nM; in the assay on HCT-116, 530 nM.
As to `Cc1csc(Nc2nc(Nc3ccc(S(N)(=O)=O)cc3)ncc2C)n1`, the values for the IC50 (in assay [2]; in assay [3]; with HCT-116) were 10 nM, 51 nM and 3210 nM, respectively.
Turning to `CCOC(=O)c1sc(Nc2nc(Nc3ccc(S(N)(=O)=O)cc3)ncc2F)nc1C`, the inhibition in assay [1] was 69%. Moreover, the results for the 50% inhibitory concentration (IC50) (in assay [2]; with HCT-116) were 470 nM and 9260 nM, respectively.
For `CCOC(=O)c1cnc(Nc2nc(Nc3ccc(S(N)(=O)=O)cc3)ncc2C)s1`, the inhibition is 82% in assay [4] and 79% in assay [1]. For the same molecule, the IC50 in the assay with HCT-116 came out at 4580 nM.
As for `NS(=O)(=O)c1ccc(Nc2nccc(Nc3nccs3)n2)cc1`, the IC50 was 52 nM in assay [2], 124 nM in assay [3] and 1380 nM in the assay with HCT-116.
On to `Cc1cnc(Nc2ccc(S(C)(=O)=O)cc2)nc1Nc1nccs1`, for which the IC50 was determined as 55 nM in assay [2], 13 nM in assay [3] and 6090 nM with HCT-116.
`CCOC(=O)c1sc(Nc2nc(Nc3ccc(S(N)(=O)=O)cc3)ncc2C)nc1C`: the values for the inhibition in assay [4] and in assay [1] were 81% and 83%, respectively. For the same molecule, in the assay on HCT-116, the half-maximal inhibitory concentration (IC50) is more than 10000 nM.
Regarding `CCOC(=O)c1cnc(Nc2nc(Nc3ccc(S(N)(=O)=O)cc3)ncc2OC)s1`, the inhibition in assay [4] amounted to 36%; in assay [1], 32%. For the same molecule, the IC50 in the assay on HCT-116 was more than 10000 nM.
On to `Fc1ccc(Nc2nccc(Nc3nccs3)n2)cc1`, for which the inhibition came to 9% in assay [4] and 6% in assay [1]. In addition, the IC50 in the assay on HCT-116 was more than 10000 nM.
`Cc1cnc(Nc2ccc(S(N)(=O)=O)cc2)nc1Nc1nc(-c2ccc(C(C)C)cc2)cs1`: the inhibition in assay [4] was 84%; in assay [1] it was 83%. In addition, in the assay on HCT-116, the IC50 amounted to 3060 nM.
Consider `Cc1cnc(Nc2ccc(S(N)(=O)=O)cc2)nc1Nc1nc(C(C)C)cs1`, for which the IC50 was 11 nM in assay [2], 294 nM in assay [3] and 5820 nM with HCT-116.
`CC(C)c1ccc(-c2csc(Nc3nc(Nc4ccc(S(N)(=O)=O)cc4)ncc3F)n2)cc1`: the inhibition in assay [4] worked out at 65%; in assay [1], 27%. Moreover, in the assay with HCT-116, the concentration for half-maximal inhibition (IC50) was more than 10000 nM.
Regarding `CS(=O)(=O)c1ccc(Nc2nccc(Nc3nccs3)n2)cc1`, the figures for the IC50 (in assay [2]; in assay [3]; with HCT-116) were 110 nM, 470 nM and 9510 nM, respectively.
For the molecule `NS(=O)(=O)c1ccc(Nc2ncc(F)c(Nc3nccs3)n2)cc1`, the figures for the IC50 (in assay [2]; in assay [3]; in the assay with HCT-116) were 10 nM, 217 nM and 4040 nM, respectively.
Regarding `Cc1csc(Nc2ccnc(Nc3ccc(S(N)(=O)=O)cc3)n2)n1`, the results for the inhibition in assay [4] and in assay [1] were 85% and 76%, respectively. Moreover, the IC50 in the assay with HCT-116 was more than 10000 nM.
Turning to `NS(=O)(=O)c1ccc(Nc2nccc(Nc3nc(C4CC4)cs3)n2)cc1`, the figures for the half-maximal inhibitory concentration (IC50) (in assay [2]; in assay [3]; in the assay on HCT-116) were 16 nM, 46 nM and 3640 nM, respectively.
In the case of `CC(C)c1csc(Nc2nc(Nc3ccc(S(N)(=O)=O)cc3)ncc2F)n1`, the IC50 was determined as 8 nM in assay [2], 38 nM in assay [3] and 3870 nM in the assay on HCT-116.
As for `NS(=O)(=O)c1ccc(Nc2nccc(Nc3nc(-c4ccc(F)cc4)cs3)n2)cc1`, the inhibition in assay [1] was found to be 65%. Moreover, the IC50 in assay [2] turned out to be 110 nM; in the assay on HCT-116, 4400 nM.
Take `COC(=O)c1sc(Nc2nc(Nc3ccc(S(N)(=O)=O)cc3)ncc2C)nc1C`: the inhibition in assay [1] was 84%. Also, the half-maximal inhibitory concentration (IC50) is 53 nM in assay [2] and more than 10000 nM in the assay on HCT-116.
As for `COc1ccc(Nc2nccc(Nc3ncco3)n2)cc1`, the inhibition in assay [4] is 60%; in assay [1], 21%. For the same molecule, the IC50 in the assay with HCT-116 was more than 10000 nM.
Turning to `COc1ccc(Nc2nccc(Nc3nccs3)n2)cc1`, the IC50 in assay [2] is 910 nM; in assay [3], 1840 nM; in the assay on HCT-116, 2230 nM.
For the molecule `COc1ccc(Nc2nccc(Nc3cc[nH]n3)n2)cc1`, the inhibition in assay [4] was determined as 47%; in assay [1], 29%. For the same molecule, the IC50 in the assay on HCT-116 was more than 10000 nM.
Take `NS(=O)(=O)c1ccc(Nc2ncc(F)c(Nc3nc(-c4ccc(F)cc4)cs3)n2)cc1`: the inhibition in assay [1] was determined as 41%. Besides, the IC50 was found to be 23 nM in assay [2] and 5260 nM in the assay with HCT-116.
Turning to `Cc1cnc(Nc2ccc(S(N)(=O)=O)cc2)nc1Nc1nc(-c2ccc(F)cc2)cs1`, the values for the IC50 (in assay [2]; in assay [3]; in the assay with HCT-116) were 32 nM, 89 nM and 6050 nM, respectively.
Take `Cc1cnc(Nc2ccc(S(N)(=O)=O)cc2)nc1Nc1nc(C2CC2)cs1`: the half-maximal inhibitory concentration (IC50) in assay [2] came to 5 nM; in assay [3] it was 46 nM; in the assay with HCT-116, 6600 nM.
As for `COc1cnc(Nc2ccc(S(N)(=O)=O)cc2)nc1Nc1nccs1`, the figures for the IC50 (in assay [2]; in assay [3]; in the assay with HCT-116) were 112 nM, 11 nM and more than 10000 nM, respectively.
With `CNS(=O)(=O)c1ccc(Nc2ncc(C)c(Nc3nccs3)n2)cc1`, the values for the inhibition in assay [4] and in assay [1] were 85% and 19%, respectively. In the assay on HCT-116, the IC50 was more than 10000 nM.
Consider `Brc1ccc(Nc2nccc(Nc3nccs3)n2)cc1`, for which the figures for the inhibition in assay [4] and in assay [1] were 17% and 15%, respectively. In addition, the IC50 in the assay with HCT-116 was found to be 6840 nM.
For the molecule `Cc1cnc(Nc2ccc(S(=O)(=O)NC3CC3)cc2)nc1Nc1nccs1`, the figures for the inhibition in assay [4] and in assay [1] were 76% and 62%, respectively. Further, the IC50 in the assay on HCT-116 is 9620 nM.
Consider `COC(=O)c1sc(Nc2nc(Nc3ccc(S(N)(=O)=O)cc3)ncc2OC)nc1C`, for which the inhibition in assay [4] came to 44%; in assay [1], 19%. Also, the IC50 with HCT-116 was more than 10000 nM.
Take `COc1cnc(Nc2ccc(S(N)(=O)=O)cc2)nc1Nc1ncc(C)s1`: the inhibition in assay [4] came to 72%; in assay [1], 75%. Also, the IC50 in the assay on HCT-116 was 9760 nM.
In the case of `Cc1cnc(Nc2ccc(S(=O)(=O)N3CCOCC3)cc2)nc1Nc1nccs1`, the inhibition was 79% in assay [4] and 7% in assay [1]. Moreover, in the assay with HCT-116, the IC50 was more than 10000 nM.
On to `COCCNS(=O)(=O)c1ccc(Nc2ncc(C)c(Nc3nccs3)n2)cc1`, for which, in assay [1], the inhibition was determined as 46%. Also, the IC50 was found to be 43 nM in assay [2] and 7420 nM with HCT-116.
Consider `NS(=O)(=O)c1ccc(Nc2ncc(F)c(Nc3nc(C4CC4)cs3)n2)cc1`, for which, in assay [1], the inhibition is 51%. Also, the 50% inhibitory concentration (IC50) in assay [2] is 11 nM; in the assay with HCT-116, 7850 nM.
With `NS(=O)(=O)c1ccc(Nc2nccc(Nc3ncc([N+](=O)[O-])s3)n2)cc1`, the figures for the half-inhibitory concentration (IC50) (in assay [2]; in assay [3]; in the assay with HCT-116) were 38 nM, 14 nM and 8830 nM, respectively.
With `Cc1cnc(Nc2nc(Nc3ccc(S(N)(=O)=O)cc3)ncc2C)s1`, the inhibition in assay [4] turned out to be 78%. Further, the figures for the IC50 (in assay [3]; with HCT-116) were 2 nM and 692 nM, respectively.
Consider `CC(C)c1csc(Nc2ccnc(Nc3ccc(S(N)(=O)=O)cc3)n2)n1`, for which, in assay [1], the inhibition was found to be 81%. Further, the IC50 came out at 27 nM in assay [2] and 7350 nM with HCT-116.
`CC(C)c1ccc(-c2csc(Nc3ccnc(Nc4ccc(S(N)(=O)=O)cc4)n3)n2)cc1`: the inhibition in assay [4] turned out to be 59%; in assay [1], 63%. Also, the 50% inhibitory concentration (IC50) with HCT-116 was found to be 6430 nM.
The corresponding values for `c1ccc(Nc2nccc(Nc3nccs3)n2)cc1` are 61%, 18% and more than 10000 nM.
Take `COC(=O)c1sc(Nc2ccnc(Nc3ccc(S(N)(=O)=O)cc3)n2)nc1C`: the inhibition in assay [4] amounted to 67%; in assay [1] it was 31%. In addition, the IC50 in the assay with HCT-116 is 8720 nM.
As to `COc1cc(Nc2nccc(Nc3nccs3)n2)cc(OC)c1OC`, the results for the inhibition in assay [4] and in assay [1] were 30% and 49%, respectively. In addition, the IC50 in the assay on HCT-116 is more than 10000 nM.
The matching figures for `CCOC(=O)c1cnc(Nc2nc(Nc3ccc(S(N)(=O)=O)cc3)ncc2F)s1`: 79%, 40% and 7500 nM.
Take `Cc1cnc(Nc2ccc(S(=O)(=O)N3CCCCC3)cc2)nc1Nc1nccs1`: the inhibition in assay [1] worked out at 4%. For the same molecule, the IC50 amounted to 26 nM in assay [2] and 3050 nM in the assay with HCT-116.
With `Cc1cnc(Nc2ccc(S(=O)(=O)NC(C)C)cc2)nc1Nc1nccs1`, the inhibition was found to be 81% in assay [4] and 31% in assay [1]. Moreover, the IC50 in the assay on HCT-116 is more than 10000 nM.
